Test results reported in patent US20040072319A1, “Molecules that modulate ubiquintin-dependent proteolysis and methods for identifying same” (priority 2003, published 2004).
Several values for one entry are separate records, joined by “and”; a condition that tells them apart may be missing. Equal values may be shown once. Peptide text beside a SMILES is read from it.

What follows are compounds tested against Cdc4 (Saccharomyces cerevisiae, UniProt P07834) (assay: Fluorescence polarization equilibrium binding of peptides to Cdc4). Details: K, (μM), Table 1; average of at least 3 sets of readings, ± SEM; ND = no binding detected up to [Cdc4/Skp1] of 10 μM; ˜ = saturation binding not achieved.
Design: made in house; host or cells: Cdc4: baculovirus-infected insect (Sf9) cells; Gst-Skp1: E. coli BL21 codon plus; species or system yeast
Procedure: Equilibrium binding constant determination was carried out using fluorescence polarization on a Beacon 2000 Fluorescence Polarization System (Pan Vera, Wis.) equipped with a 100 μL sample chamber. Fluorescein-labeled probes were prepared through the reaction of carboxyterminal-peptides with 5-(and-6)-carboxyfluorescein succinimidyl ester (Molecular Probes), purified by reverse-phase HPLC, and confirmed by mass spectrometry. Binding studies were conducted with 5 nM fluorescein-labeled probe dissolved in PBS containing 100 μg/ml BSA and 1 mM dithiothreitol. Reaction mixtures were allowed to equilibrate for 10 minutes at room temperature prior to each measurement. All fluorescence polarization measurements were conducted at 22° C.

SMILES	Kd [µM]
CSCC[C@H](NC(=O)[C@@H]1CCCN1C(=O)[C@@H]1CCCN1C(=O)[C@@H](NC(=O)[C@@H](NC(=O)[C@@H]1CCCN1C(=O)[C@@H]1CCCN1C(=O)c1ccc2c(c1)C(=O)OC21c2ccc(O)cc2Oc2cc(O)ccc21)C(C)C)[C@@H](C)OP(=O)(O)O)C(=O)N[C@@H](CO)C(=O)N1CCC[C@H]1C(=O)O [Ash 1 pT290, PPVpTPPMSP] (HELM PEPTIDE1{[O=C1OC2(c3ccc(O)cc3Oc3cc(O)ccc32)c2ccc(C(=O)[*:2])cc21].P.P.V.[C[C@@H](OP(=O)(O)O)[C@H](N[*:1])C(=O)[*:2]].P.P.M.S.P}$$$$V2.0)	~25
CC(C)C[C@H](NC(=O)CNC(=O)c1ccc2c(c1)C(=O)OC21c2ccc(O)cc2Oc2cc(O)ccc21)C(=O)N[C@@H](CC(C)C)C(=O)N[C@H](C(=O)N1CCC[C@H]1C(=O)N1CCC[C@H]1C(=O)N[C@@H](CCC(N)=O)C(=O)N[C@@H](CO)C(=O)NCC(=O)O)[C@@H](C)OP(=O)(O)O [CycE-9mer, GLLpTPPQSG] (HELM PEPTIDE1{[O=C1OC2(c3ccc(O)cc3Oc3cc(O)ccc32)c2ccc(C(=O)[*:2])cc21].G.L.L.[C[C@@H](OP(=O)(O)O)[C@H](N[*:1])C(=O)[*:2]].P.P.Q.S.G}$$$$V2.0)	1 ± 0.05
CC(=O)NCCCC[C@H](NC(=O)[C@@H]1CCCN1C(=O)[C@@H]1CCCN1C(=O)[C@@H](NC(=O)[C@H](CC(C)C)NC(=O)[C@H](CC(C)C)NC(=O)CNC(=O)c1ccc2c(c1)C(=O)OC21c2ccc(O)cc2Oc2cc(O)ccc21)[C@@H](C)OP(=O)(O)O)C(=O)N[C@@H](CO)C(=O)NCC(=O)O [CycEK3Ac-9mer, GLLpTPPK(Ac)SG] (HELM PEPTIDE1{[O=C1OC2(c3ccc(O)cc3Oc3cc(O)ccc32)c2ccc(C(=O)[*:2])cc21].G.L.L.[C[C@@H](OP(=O)(O)O)[C@H](N[*:1])C(=O)[*:2]].P.P.K.S.G}|PEPTIDE2{[ac]}$PEPTIDE1,PEPTIDE2,8:R3-1:R2$$$V2.0)	1 ± 0.1
CC[C@H](C)[C@H](NC(=O)[C@H](CC(C)C)NC(=O)[C@H](CCC(N)=O)NC(=O)[C@H](CCC(=O)O)NC(=O)[C@H](CCC(N)=O)NC(=O)[C@@H]1CCCN1C(=O)[C@@H](NC(=O)[C@H](Cc1ccccc1)NC(=O)[C@H](CCC(N)=O)NC(=O)[C@@H]1CCCN1C(=O)[C@H](Cc1ccccc1)NC(=O)[C@H](CCC(=O)O)NC(=O)CNC(=O)[C@@H](NC(=O)c1ccc2c(c1)C(=O)OC21c2ccc(O)cc2Oc2cc(O)ccc21)[C@@H](C)O)[C@@H](C)OP(=O)(O)O)C(=O)O [FarpT306, TGEFPQFpTPQEQLI] (HELM PEPTIDE1{[O=C1OC2(c3ccc(O)cc3Oc3cc(O)ccc32)c2ccc(C(=O)[*:2])cc21].T.G.E.F.P.Q.F.[C[C@@H](OP(=O)(O)O)[C@H](N[*:1])C(=O)[*:2]].P.Q.E.Q.L.I}$$$$V2.0)	~25

Same assay, conditions: dissociation constant Kd for Cdc4

SMILES	Kd
CC(C)C[C@H](NC(=O)CNC(=O)c1ccc2c(c1)C(=O)OC21c2ccc(O)cc2Oc2cc(O)ccc21)C(=O)N[C@@H](CC(C)C)C(=O)N[C@@H](COP(=O)(O)O)C(=O)N1CCC[C@H]1C(=O)N1CCC[C@H]1C(=O)N[C@@H](CCC(N)=O)C(=O)N[C@@H](CO)C(=O)NCC(=O)O [CycEpS-9mer, GLLpSPPQSG] (HELM PEPTIDE1{[O=C1OC2(c3ccc(O)cc3Oc3cc(O)ccc32)c2ccc(C(=O)[*:2])cc21].G.L.L.[O=C([C@H](COP(=O)(O)O)N[*:1])[*:2]].P.P.Q.S.G}$$$$V2.0)	6 µM
CC(C)C[C@H](NC(=O)[C@@H](NC(=O)[C@@H]1CCCN1C(=O)[C@@H](NC(=O)[C@@H]1CCCN1C(=O)[C@H](CC(C)C)NC(=O)[C@H](Cc1ccccc1)NC(=O)c1ccc2c(c1)C(=O)OC21c2ccc(O)cc2Oc2cc(O)ccc21)[C@@H](C)OP(=O)(O)O)C(C)C)C(=O)N[C@@H](CCC(=O)O)C(=O)N[C@@H](CC(=O)O)C(=O)O [Gcn4-9mer, FLPpTPVLED] (HELM PEPTIDE1{[O=C1OC2(c3ccc(O)cc3Oc3cc(O)ccc32)c2ccc(C(=O)[*:2])cc21].F.L.P.[C[C@@H](OP(=O)(O)O)[C@H](N[*:1])C(=O)[*:2]].P.V.L.E.D}$$$$V2.0)	0.675 µM and 0.88 µM
